Columns and labels:
[1] = molecular target: Human plasma kallikrein (Homo sapiens (Human), UniProt P03952); experiment: Kallikrein Assay (fluorogenic substrate Acetyl-K-P-R-AFC); format: biochemical; settings: Plasma Kallikrein (PKal)
How it was run: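 Ki is derived from IC50 with the Cheng-Prusoff equation, and IC50 from the inflection point of a four-parameter logistic curve. The rate of AFC release is read with 0.5 nM purified enzyme and […] substrate at room temperature or 37 °C.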

[2] = molecular target: human Factor XIa (Homo sapiens (Human), UniProt P03951); experiment: Factor XIa Assay (fluorogenic substrate GPR-AFC); format: biochemical; settings: Factor XIa (FXIa)
Chain of human Factor XIa (P03951 388-625 limits assumed): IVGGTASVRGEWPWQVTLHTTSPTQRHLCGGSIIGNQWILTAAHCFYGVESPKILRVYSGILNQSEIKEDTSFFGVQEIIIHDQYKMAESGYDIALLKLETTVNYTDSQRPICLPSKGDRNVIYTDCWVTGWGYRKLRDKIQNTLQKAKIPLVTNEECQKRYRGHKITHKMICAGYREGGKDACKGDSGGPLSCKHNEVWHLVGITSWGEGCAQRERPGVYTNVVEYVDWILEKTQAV
Chain of human Factor XIa (P03951 19-387 partner limits assumed): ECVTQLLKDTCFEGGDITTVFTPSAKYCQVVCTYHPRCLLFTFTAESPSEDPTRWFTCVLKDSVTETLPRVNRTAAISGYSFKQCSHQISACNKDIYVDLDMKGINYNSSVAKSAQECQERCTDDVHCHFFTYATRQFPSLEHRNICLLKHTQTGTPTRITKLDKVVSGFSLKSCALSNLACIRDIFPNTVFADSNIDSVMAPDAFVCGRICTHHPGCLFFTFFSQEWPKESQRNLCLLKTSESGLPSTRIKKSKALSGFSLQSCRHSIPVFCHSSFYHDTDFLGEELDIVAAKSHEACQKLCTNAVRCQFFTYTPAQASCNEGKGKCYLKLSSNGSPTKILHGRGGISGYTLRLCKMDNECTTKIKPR

Chain of Human plasma kallikrein (P03952 391-638): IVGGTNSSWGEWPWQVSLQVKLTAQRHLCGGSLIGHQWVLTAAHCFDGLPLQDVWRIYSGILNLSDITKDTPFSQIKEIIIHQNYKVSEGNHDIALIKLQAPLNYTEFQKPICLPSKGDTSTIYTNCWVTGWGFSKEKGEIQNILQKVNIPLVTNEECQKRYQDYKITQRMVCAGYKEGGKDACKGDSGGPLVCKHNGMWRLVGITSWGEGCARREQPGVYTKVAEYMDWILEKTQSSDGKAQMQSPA
Chain of Human plasma kallikrein (P03952 20-390 partner): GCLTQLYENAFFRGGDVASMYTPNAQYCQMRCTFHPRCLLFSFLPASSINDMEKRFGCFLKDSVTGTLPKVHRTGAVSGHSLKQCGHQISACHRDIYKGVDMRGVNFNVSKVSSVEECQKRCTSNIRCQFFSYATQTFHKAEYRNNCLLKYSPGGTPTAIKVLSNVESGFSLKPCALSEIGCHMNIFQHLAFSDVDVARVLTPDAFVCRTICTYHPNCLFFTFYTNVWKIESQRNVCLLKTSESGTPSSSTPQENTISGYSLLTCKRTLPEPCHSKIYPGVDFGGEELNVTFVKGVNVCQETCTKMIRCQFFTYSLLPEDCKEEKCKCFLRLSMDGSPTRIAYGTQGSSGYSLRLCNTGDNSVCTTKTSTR

Question: For `CC(c1cnc(N2C[C@H]3C[C@H]3C2=O)c2c1CCC2)n1cc(NC(=O)c2cncc(-c3c(C(F)F)ccc(Cl)c3F)n2)cn1` (single isomer, unassigned) [Example 142, 6-(3-Chloro-6-(difluoromethyl)-2-fluorophenyl)-N-(1-((R or S)-1-(1-((1R,5S)-2-oxo-3-azabicyclo[3.1.0]hexan-3-yl)-6,7-dihydro-5H-cyclopenta[c]pyridin-4-yl)ethyl)-1H-pyrazol-4-yl)pyrazine-2-carboxamide], which IC50 [1] is on record?
Answer: 0.6 nM

Question: What about the IC50 [2] of the same compound?
Answer: 0.373 µM

Question: What does the source list for `Cc1ncc(-c2c(C(F)F)ccc(Cl)c2F)nc1C(=O)Nc1cnn(C(C)c2ccc(N3CC4CC4C3=O)nc2)c1` (single isomer, unassigned) [Example 76, 6-(3-Chloro-6-(difluoromethyl)-2-fluorophenyl)-3-methyl-N-(1-((S or R)-1-(6-((1S,5R or 1R,5S)-2-oxo-3-azabicyclo[3.1.0]hexan-3-yl)pyridin-3-yl)ethyl)-1H-pyrazol-4-yl)pyrazine-2-carboxamide]?
Answer: IC50 [1]: 43 nM; IC50 [2]: > 10 µM

Question: With `CC(c1ccc(N2C[C@H]3C[C@H]3C2=O)cc1)n1cc(NC(=O)c2cncc(-c3c(C(F)F)ccc(Cl)c3F)n2)cn1` (mixture of isomers) [Example 69, 6-(3-Chloro-6-(difluoromethyl)-2-fluorophenyl)-N-(1-((S and R)-1-(4-((1R,5S)-2-oxo-3-azabicyclo[3.1.0]hexan-3-yl)phenyl)ethyl)-1H-pyrazol-4-yl)pyrazine-2-carboxamide] as the compound, how does the IC50 [1] read?
Answer: 10 nM

Question: What about the IC50 [2] of the same compound?
Answer: > 10 µM

Question: How did the IC50 [1] turn out when `CC(c1cnc(N2C[C@H]3C[C@H]3C2=O)c(C(F)F)c1)n1cc(NC(=O)c2cncc(-c3c(C(F)F)ccc(Cl)c3F)n2)cn1` (single isomer, unassigned) [Example 78, 6-(3-Chloro-6-(difluoromethyl)-2-fluorophenyl)-N-(1-((R or S)-1-(5-(difluoromethyl)-6-((1R,5S)-2-oxo-3-azabicyclo[3.1.0]hexan-3-yl)pyridin-3-yl)ethyl)-1H-pyrazol-4-yl)pyrazine-2-carboxamide] was run?
Answer: 2.7 nM

Question: What about the IC50 [2] of the same compound?
Answer: > 10 µM

Question: Which results are given for `Cc1nc(N2CCN(C)C2=O)ncc1[C@H](C)n1cc(NC(=O)c2nc(-c3c(C(F)F)ccc(Cl)c3F)cnc2C)cn1` [Example 207, (S)-6-(3-Chloro-6-(difluoromethyl)-2-fluorophenyl)-3-methyl-N-(1-(1-(4-methyl-2-(3-methyl-2-oxoimidazolidin-1-yl)pyrimidin-5-yl)ethyl)-1H-pyrazol-4-yl)pyrazine-2-carboxamide]?
Answer: IC50 [1]: 8.6 nM; IC50 [2]: 3.27 µM

Question: For `Cc1ncc(-c2c(C(F)F)ccc(Cl)c2F)nc1C(=O)Nc1cnn(C(C)c2ccc(N3CC4CC4C3=O)nc2)c1` (single isomer, unassigned) [Example 75, 6-(3-Chloro-6-(difluoromethyl)-2-fluorophenyl)-3-methyl-N-(1-((R or S)-1-(6-((1R,5S or 1S,5R)-2-oxo-3-azabicyclo[3.1.0]hexan-3-yl)pyridin-3-yl)ethyl)-1H-pyrazol-4-yl)pyrazine-2-carboxamide], which IC50 [1] is on record?
Answer: 4.8 nM

Question: And the IC50 [2]?
Answer: > 10 µM

Question: With `Cc1cc(C(C)n2cc(NC(=O)c3nc(-c4c(C(F)F)ccc(Cl)c4F)cnc3C(C)O)cn2)cnc1N1C[C@H]2C[C@H]2C1=O` (single isomer, unassigned) [Example 211, 6-(3-Chloro-6-(difluoromethyl)-2-fluorophenyl)-3-((R or S)-1-hydroxyethyl)-N-(1-((S or R)-1-(5-methyl-6-((1R,5S)-2-oxo-3-azabicyclo[3.1.0]hexan-3-yl)pyridin-3-yl)ethyl)-1H-pyrazol-4-yl)pyrazine-2-carboxamide] as the compound, how does the IC50 [1] read?
Answer: 0.6 nM

Question: And the IC50 [2]?
Answer: 0.05 µM

Question: For `Cc1cc(N2C[C@H]3C[C@H]3C2=O)cnc1C(C)n1cc(NC(=O)c2cncc(-c3c(C(F)F)ccc(Cl)c3F)n2)cn1` (single isomer, unassigned) [Example 62, 6-(3-Chloro-6-(difluoromethyl)-2-fluorophenyl)-N-(1-((S or R)-1-(3-methyl-5-((1R,5S)-2-oxo-3-azabicyclo[3.1.0]hexan-3-yl)pyridin-2-yl)ethyl)-1H-pyrazol-4-yl)pyrazine-2-carboxamide], which IC50 [1] is on record?
Answer: 4.2 nM

Question: And the IC50 [2]?
Answer: 7.63 µM

Question: What does the source list for `Cc1nc(N2C[C@H]3C[C@H]3C2=O)ncc1Cn1cc(NC(=O)c2nc(-c3c(S(C)(=O)=O)ccc(Cl)c3F)cnc2C)cn1` [Example 85, 6-(3 -Chloro-2-fluoro-6-(methylsulfonyl)phenyl)-3-methyl-N-(1-((4-methyl-2-((1R,5S)-2-oxo-3-azabicyclo[3.1.0]hexan-3-yl)pyrimidin-5-yl)methyl)-1H-pyrazol-4-yl)pyrazine-2-carboxamide]?
Answer: IC50 [1]: 10.1 nM; IC50 [2]: 2.07 µM

Question: For `COc1nc(N2C[C@H]3C[C@H]3C2=O)ncc1Cn1cc(NC(=O)c2nc(-c3c(C(F)F)ccc(Cl)c3F)cnc2C)cn1` [Example 95, 6-(3-Chloro-6-(difluoromethyl)-2-fluorophenyl)-N-(1-((4-methoxy-2-((1R, 5S)-2-oxo-3-azabicyclo[3.1.0]hexan-3-yl)pyrimidin-5-yl)methyl)-1H-pyrazol-4-yl)-3-methylpyrazine-2-carboxamide], which IC50 [1] is on record?
Answer: 14.3 nM

Question: What about the IC50 [2] of the same compound?
Answer: 4.59 µM

Question: What does the source list for `Cc1c(C(C)n2cc(NC(=O)c3cncc(-c4c(C(F)F)ccc(Cl)c4F)n3)cn2)cnc(N2C[C@H]3C[C@H]3C2=O)c1F` (stereo partly drawn) [Example 45, 6-(3-Chloro-6-(difluoromethyl)-2-fluorophenyl)-N (1-(1-(5-fluoro-4-methyl-6-((1R,5S)-2-oxo-3-azabicyclo[3.1.0]hexan-3-yl)pyridin-3-yl)ethyl)-1H-pyrazol-4-yl)pyrazine-2-carboxamide]?
Answer: IC50 [1]: 6.1 nM; IC50 [2]: 4.67 µM

Question: For `Cc1cc(C(C)n2cc(NC(=O)c3cc(-c4c(C(F)F)ccc(Cl)c4F)nnc3C)cn2)cnc1N1C[C@H]2C[C@H]2C1=O` (single isomer, unassigned) [Example 121, 6-(3-Chloro-6-(difluoromethyl)-2-fluorophenyl)-3-methyl-N-(1-((S or R)-1-(5-methyl-6-((1R,5S)-2-oxo-3-azabicyclo[3.1.0]hexan-3-yl)pyridin-3-yl)ethyl)-1H-pyrazol-4-yl)pyridazine-4-carboxamide], which IC50 [1] is on record?
Answer: 4.5 nM

Question: What about the IC50 [2] of the same compound?
Answer: > 10 µM

Question: `Cc1nc(N2C[C@H]3C[C@H]3C2=O)c(F)cc1C(C)n1cc(NC(=O)c2cncc(-c3c(C(F)F)ccc(Cl)c3F)n2)cn1` (stereo partly shown) [Example 150, 6-(3-Chloro-6-(difluoromethyl)-2-fluorophenyl)-N-(1-(1-(5-fluoro-2-methyl-6-((1R.5S)-2-oxo-3-azabicyclo[3.1.0]hexan-3-yl)pyridin-3-yl)ethyl)-1H-pyrazol-4-yl)pyrazine-2-carboxamide] was tested. Which IC50 [1] did it give?
Answer: 177 nM

Question: What about the IC50 [2] of the same compound?
Answer: > 10 µM

Question: Which results are given for `[2H]C([2H])(O)c1ncc(-c2c(C(F)F)ccc(Cl)c2F)nc1C(=O)Nc1cnn([C@@H](C)c2cnc(N3C[C@H]4C[C@H]4C3=O)nc2)c1` [Example 182, 6-(3-Chloro-6-(difluoromethyl)-2-fluorophenyl)-3-(hydroxymethyl-d2)-N-(1-((S)-1-(2-((1R,5S)-2-oxo-3-azabicyclo[3.1.0]hexan-3-yl)pyrimidin-5-yl)ethyl)-1H-pyrazol-4-yl)pyrazine-2-carboxamide]?
Answer: IC50 [1]: 0.7 nM; IC50 [2]: 0.572 µM

Question: `CC(c1ccc(N2CC3CC3C2=O)nc1)n1cc(NC(=O)c2cncc(-c3c(C(F)F)ccc(Cl)c3F)n2)cn1` (single isomer, unassigned) [Example 10, 6-(3-Chloro-6-(difluoromethyl)-2-fluorophenyl)-N-(1-((S or R)-1-(6-((1R,5S or 1S,5R)-2-oxo-3-azabicyclo[3.1.0]hexan-3-yl)pyridin-3-yl)ethyl)-1H-pyrazol-4-yl)pyrazine-2-carboxamide] was tested. Which IC50 [1] did it give?
Answer: 16.8 nM

Question: What about the IC50 [2] of the same compound?
Answer: > 10 µM

Question: Which results are given for `Cc1cc(N2C[C@H]3C[C@H]3C2=O)ccc1C(C)n1cc(NC(=O)c2cncc(-c3c(C(F)F)ccc(Cl)c3F)n2)cn1` (single isomer, unassigned) [Example 98, 6-(3-Chloro-6-(difluoromethyl)-2-fluorophenyl)-N-(1-((S or R)-1-(2-methyl-4-((1R,5S)-2-oxo-3-azabicyclo[3.1.0]hexan-3-yl)phenyl)ethyl)-1H-pyrazol-4-yl)pyrazine-2-carboxamide]?
Answer: IC50 [1]: 1.4 nM; IC50 [2]: > 10 µM

Question: Which results are given for `Cc1nc(N2C[C@H]3C[C@H]3C2=O)ncc1[C@@H](CO)n1cc(NC(=O)c2cncc(-c3c(C(F)F)ccc(Cl)c3F)n2)cn1` [Example 159, 6-(3-Chloro-6-(difluoromethyl)-2-fluorophenyl)-N-(1-((S)-2-hydroxy-1-(4-methyl-2-((1R,5S)-2-oxo-3-azabicyclo[3.1.0]hexan-3-yl)pyrimidin-5-yl)ethyl)-177-pyrazol-4-yl)pyrazine-2-carboxamide]?
Answer: IC50 [1]: 11.2 nM; IC50 [2]: 6.9 µM

Question: For `Cc1ncc(-c2c(C(F)F)ccc(Cl)c2F)nc1C(=O)Nc1cnn(C(C)c2cnc(N3C[C@H]4C[C@H]4C3=O)c(F)c2C)c1` (single isomer, unassigned) [Example 128, 6-(3-Chloro-6-(difluoromethyl)-2-fluorophenyl)-N-(1-((R or S)-1-(5-fluoro-4-methyl-6-((1R,5S)-2-oxo-3-azabicyclo[3.1.0]hexan-3-yl)pyridin-3-yl)ethyl)-1H-pyrazol-4-yl)-3-methylpyrazine-2-carboxamide], which IC50 [1] is on record?
Answer: 7.1 nM

Question: And the IC50 [2]?
Answer: 5.27 µM

Question: Which results are given for `CC(c1cnc(N2Cc3ncccc3C2=O)nc1)n1cc(NC(=O)c2cncc(-c3c(C(F)F)ccc(Cl)c3F)n2)cn1` (racemic) [Example 27, (S and R)-6-(3-Chloro-6-(difluoromethyl)-2-fluorophenyl)-N(1-(1-(2-(5-oxo-5,7-dihydro-6H-pyrrolo[3,4-b]pyridin-6-yl)pyrimidin-5-yl)ethyl)-1H-pyrazol-4-yl)pyrazine-2-carboxamide]?
Answer: IC50 [1]: 14.8 nM; IC50 [2]: 5.65 µM

Question: `Cc1nc(C(C)n2cc(NC(=O)c3cncc(-c4c(C(F)F)ccc(Cl)c4F)n3)cn2)ncc1N1C[C@H]2C[C@H]2C1=O` (single isomer, unassigned) [Example 3, 6-(3-Chloro-6-(difluoromethyl)-2-fluorophenyl)-N-(1-((S or R)-1-(4-methyl-5-((1R,5S)-2-oxo-3-azabicyclo[3.1.0]hexan-3-yl)pyrimidin-2-yl)ethyl)-1H-pyrazol-4-yl)pyrazine-2-carboxamide] was tested. Which IC50 [1] did it give?
Answer: 1 nM

Question: And the IC50 [2]?
Answer: > 10 µM
